Experimental data published in the kinase profiling compilation of Christmann-Franck et al. (2016).
“And” between values parts separate entries of the source, which are not always exact repeats. Identical values can stand only once.

What was measured:
Assay in all cases: radiometric filter-binding kinase assay, Kinase HotSpot
Conditions in all cases: compound 0.5 µM; ATP 10 µM
MARK4 (human) = MARK4 (human) (UniProt Q96L34)
RPS6KA1 KD1 KD2 (human) = RPS6KA1 KD1 KD2 (human) (UniProt Q15418)
LCK (human) = LCK (human) (UniProt P06239)
PRKCH (human) = PRKCH (human) (UniProt P24723)
PHKG1 (human) = PHKG1 (human) (UniProt Q16816)
Sequence of PHKG1 (human) (Q16816 whole entry, looked up): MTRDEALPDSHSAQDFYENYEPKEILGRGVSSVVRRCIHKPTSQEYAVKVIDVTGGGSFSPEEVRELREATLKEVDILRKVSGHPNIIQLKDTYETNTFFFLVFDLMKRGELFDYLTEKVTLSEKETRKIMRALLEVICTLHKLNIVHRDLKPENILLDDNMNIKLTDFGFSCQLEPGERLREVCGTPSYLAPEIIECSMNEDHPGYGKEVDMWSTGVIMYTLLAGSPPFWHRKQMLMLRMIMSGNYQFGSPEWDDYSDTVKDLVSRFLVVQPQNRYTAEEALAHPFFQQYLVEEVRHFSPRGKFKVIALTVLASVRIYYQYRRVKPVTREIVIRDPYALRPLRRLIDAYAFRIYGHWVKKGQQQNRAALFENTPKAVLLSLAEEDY

ERBB2 (human) = ERBB2 (human) (UniProt P04626)
TEC (human) = TEC (human) (UniProt P42680)
STK16 (human) = STK16 (human) (UniProt O75716)
SIK2 (human) = SIK2 (human) (UniProt Q9H0K1)
Sequence of SIK2 (human) (Q9H0K1 whole entry, looked up): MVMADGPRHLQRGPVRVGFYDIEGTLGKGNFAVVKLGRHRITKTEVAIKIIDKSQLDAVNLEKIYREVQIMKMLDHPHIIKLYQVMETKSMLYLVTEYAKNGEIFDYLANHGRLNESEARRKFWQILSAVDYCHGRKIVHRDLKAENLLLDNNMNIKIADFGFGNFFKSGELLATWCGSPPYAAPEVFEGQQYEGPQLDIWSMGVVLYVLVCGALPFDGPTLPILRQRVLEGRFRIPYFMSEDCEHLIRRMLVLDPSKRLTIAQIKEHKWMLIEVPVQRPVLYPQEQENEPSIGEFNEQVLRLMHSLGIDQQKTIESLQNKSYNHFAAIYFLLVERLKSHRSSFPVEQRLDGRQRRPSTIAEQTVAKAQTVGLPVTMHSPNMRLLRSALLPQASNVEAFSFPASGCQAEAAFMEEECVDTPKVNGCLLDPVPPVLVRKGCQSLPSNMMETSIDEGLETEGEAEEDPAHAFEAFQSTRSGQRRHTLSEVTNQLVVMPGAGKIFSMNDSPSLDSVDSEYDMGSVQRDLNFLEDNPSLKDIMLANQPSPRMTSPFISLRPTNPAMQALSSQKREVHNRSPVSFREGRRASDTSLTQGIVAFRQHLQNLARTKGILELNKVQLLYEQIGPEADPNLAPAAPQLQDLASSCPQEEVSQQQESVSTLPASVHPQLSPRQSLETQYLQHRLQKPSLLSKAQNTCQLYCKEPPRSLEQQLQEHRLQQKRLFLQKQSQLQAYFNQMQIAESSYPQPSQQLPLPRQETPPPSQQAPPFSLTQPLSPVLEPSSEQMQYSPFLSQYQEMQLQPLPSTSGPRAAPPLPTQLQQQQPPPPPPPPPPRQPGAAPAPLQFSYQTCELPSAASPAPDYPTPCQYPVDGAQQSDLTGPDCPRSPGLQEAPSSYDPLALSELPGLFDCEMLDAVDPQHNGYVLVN

MARK3 (human) = MARK3 (human) (UniProt P27448)
ROCK2 (human) = ROCK2 (human) (UniProt O75116)
Sequence of ROCK2 (human) (O75116 whole entry, looked up): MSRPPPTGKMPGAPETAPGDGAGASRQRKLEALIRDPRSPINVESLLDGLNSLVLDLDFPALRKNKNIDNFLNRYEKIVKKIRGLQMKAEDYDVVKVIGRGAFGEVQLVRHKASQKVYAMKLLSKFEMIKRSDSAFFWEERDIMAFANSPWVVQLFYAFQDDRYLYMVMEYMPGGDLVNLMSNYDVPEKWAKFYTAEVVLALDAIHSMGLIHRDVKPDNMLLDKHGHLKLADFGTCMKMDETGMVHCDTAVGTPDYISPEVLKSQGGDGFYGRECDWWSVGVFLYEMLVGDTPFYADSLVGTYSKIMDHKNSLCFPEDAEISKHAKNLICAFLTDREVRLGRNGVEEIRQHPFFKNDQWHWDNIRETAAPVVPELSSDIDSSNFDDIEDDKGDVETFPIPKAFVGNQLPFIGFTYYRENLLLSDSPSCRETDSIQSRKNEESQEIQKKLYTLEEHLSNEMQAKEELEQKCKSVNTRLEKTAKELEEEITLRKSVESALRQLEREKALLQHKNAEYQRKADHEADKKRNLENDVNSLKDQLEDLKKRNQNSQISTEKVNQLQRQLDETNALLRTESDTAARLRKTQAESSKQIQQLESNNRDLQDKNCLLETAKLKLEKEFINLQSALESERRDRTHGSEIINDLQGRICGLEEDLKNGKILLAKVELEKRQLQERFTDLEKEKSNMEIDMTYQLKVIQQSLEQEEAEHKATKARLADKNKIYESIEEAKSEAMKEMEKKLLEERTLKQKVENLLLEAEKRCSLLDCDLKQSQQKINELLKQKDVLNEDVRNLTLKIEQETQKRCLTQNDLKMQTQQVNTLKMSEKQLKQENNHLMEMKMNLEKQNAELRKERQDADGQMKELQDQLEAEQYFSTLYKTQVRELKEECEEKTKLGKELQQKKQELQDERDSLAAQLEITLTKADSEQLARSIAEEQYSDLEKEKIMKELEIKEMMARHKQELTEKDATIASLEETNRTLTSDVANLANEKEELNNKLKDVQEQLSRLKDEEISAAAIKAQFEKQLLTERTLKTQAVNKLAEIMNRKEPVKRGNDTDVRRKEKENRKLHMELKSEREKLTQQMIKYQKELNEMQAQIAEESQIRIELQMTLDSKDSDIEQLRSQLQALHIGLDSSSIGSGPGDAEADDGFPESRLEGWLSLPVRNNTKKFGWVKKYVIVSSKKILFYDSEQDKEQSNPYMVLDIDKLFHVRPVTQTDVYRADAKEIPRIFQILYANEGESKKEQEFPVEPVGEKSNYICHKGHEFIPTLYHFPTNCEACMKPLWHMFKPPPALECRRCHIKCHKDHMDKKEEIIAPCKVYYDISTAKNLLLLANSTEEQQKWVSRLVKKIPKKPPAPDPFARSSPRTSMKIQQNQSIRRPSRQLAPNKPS

CAMKK1 (human) = CAMKK1 (human) (UniProt Q8N5S9)
PRKD1 (human) = PRKD1 (human) (UniProt Q15139)
PLK1 (human) = PLK1 (human) (UniProt P53350)
AKT3 (human) = AKT3 (human) (UniProt Q9Y243)
Sequence of AKT3 (human) (Q9Y243 whole entry, looked up): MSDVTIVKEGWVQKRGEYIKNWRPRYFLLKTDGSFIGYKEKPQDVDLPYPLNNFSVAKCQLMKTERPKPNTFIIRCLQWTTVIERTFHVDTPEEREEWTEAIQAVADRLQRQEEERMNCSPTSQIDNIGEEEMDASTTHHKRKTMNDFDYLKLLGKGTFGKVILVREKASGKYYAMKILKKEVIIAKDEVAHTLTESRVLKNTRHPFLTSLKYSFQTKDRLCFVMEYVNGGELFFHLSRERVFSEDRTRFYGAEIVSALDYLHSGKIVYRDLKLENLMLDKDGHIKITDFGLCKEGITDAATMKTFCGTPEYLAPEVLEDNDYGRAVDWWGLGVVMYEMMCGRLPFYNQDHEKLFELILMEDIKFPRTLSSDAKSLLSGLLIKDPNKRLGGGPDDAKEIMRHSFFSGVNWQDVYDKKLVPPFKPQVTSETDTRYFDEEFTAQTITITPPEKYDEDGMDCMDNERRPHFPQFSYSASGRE

FGFR2 (human) = FGFR2 (human) (UniProt P21802)
MST4 (human) = MST4 (human) (UniProt Q9P289)
SGK2 (human) = SGK2 (human) (UniProt Q9HBY8)
FGFR1 (human) = FGFR1 (human) (UniProt P11362)
CSNK1D (human) = CSNK1D (human) (UniProt P48730)
Sequence of CSNK1D (human) (P48730 whole entry, looked up): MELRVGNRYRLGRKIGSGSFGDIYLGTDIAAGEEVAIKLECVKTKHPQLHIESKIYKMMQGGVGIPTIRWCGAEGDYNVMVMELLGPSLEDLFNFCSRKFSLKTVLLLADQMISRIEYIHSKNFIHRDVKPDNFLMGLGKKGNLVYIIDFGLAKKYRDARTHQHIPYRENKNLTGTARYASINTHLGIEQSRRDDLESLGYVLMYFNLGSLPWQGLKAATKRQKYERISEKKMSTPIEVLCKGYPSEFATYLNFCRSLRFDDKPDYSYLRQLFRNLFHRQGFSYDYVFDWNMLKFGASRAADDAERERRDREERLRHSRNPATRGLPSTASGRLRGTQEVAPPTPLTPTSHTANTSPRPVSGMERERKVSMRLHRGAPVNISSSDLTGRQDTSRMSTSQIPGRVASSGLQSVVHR

ITK (human) = ITK (human) (UniProt Q08881)
CLK4 (human) = CLK4 (human) (UniProt Q9HAZ1)
MAPK3 (human) = MAPK3 (human) (UniProt P27361)
LYN (human) = LYN (human) (UniProt P07948)
Sequence of LYN (human) (P07948 whole entry, looked up): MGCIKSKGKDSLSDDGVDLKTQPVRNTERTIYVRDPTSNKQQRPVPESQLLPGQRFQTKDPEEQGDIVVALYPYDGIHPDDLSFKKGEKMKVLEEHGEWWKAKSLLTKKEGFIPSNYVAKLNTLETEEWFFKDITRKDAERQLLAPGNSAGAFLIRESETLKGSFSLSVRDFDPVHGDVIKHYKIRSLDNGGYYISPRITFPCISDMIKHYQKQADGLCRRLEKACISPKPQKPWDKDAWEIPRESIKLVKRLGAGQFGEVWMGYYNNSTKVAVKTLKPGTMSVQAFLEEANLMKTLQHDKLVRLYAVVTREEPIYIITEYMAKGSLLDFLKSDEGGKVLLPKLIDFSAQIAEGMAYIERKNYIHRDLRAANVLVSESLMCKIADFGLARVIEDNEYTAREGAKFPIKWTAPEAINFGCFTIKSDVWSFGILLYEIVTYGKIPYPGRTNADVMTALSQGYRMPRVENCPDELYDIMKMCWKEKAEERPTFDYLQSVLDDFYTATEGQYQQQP

EPHB4 (human) = EPHB4 (human) (UniProt P54760)
SGK3 (human) = SGK3 (human) (UniProt Q96BR1)
Sequence of SGK3 (human) (Q96BR1 whole entry, looked up): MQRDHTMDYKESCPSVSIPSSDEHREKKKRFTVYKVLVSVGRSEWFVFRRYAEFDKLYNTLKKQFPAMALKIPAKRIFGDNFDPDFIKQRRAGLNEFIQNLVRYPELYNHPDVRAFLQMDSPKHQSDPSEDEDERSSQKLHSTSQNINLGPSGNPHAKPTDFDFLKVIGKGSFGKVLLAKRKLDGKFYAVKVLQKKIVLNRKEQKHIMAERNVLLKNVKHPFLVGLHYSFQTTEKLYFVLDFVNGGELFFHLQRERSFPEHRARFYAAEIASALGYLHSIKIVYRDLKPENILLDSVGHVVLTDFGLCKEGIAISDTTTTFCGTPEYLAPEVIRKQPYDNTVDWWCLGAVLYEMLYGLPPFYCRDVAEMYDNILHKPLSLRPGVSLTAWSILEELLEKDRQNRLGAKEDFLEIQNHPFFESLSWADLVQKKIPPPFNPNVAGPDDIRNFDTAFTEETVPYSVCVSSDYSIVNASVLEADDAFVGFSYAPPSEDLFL

FGFR3 (human) = FGFR3 (human) (UniProt P22607)
RPS6KA6 KD1 KD2 (human) = RPS6KA6 KD1 KD2 (human) (UniProt Q9UK32)
MAPK11 (human) = MAPK11 (human) (UniProt Q15759)
Sequence of MAPK11 (human) (Q15759 whole entry, looked up): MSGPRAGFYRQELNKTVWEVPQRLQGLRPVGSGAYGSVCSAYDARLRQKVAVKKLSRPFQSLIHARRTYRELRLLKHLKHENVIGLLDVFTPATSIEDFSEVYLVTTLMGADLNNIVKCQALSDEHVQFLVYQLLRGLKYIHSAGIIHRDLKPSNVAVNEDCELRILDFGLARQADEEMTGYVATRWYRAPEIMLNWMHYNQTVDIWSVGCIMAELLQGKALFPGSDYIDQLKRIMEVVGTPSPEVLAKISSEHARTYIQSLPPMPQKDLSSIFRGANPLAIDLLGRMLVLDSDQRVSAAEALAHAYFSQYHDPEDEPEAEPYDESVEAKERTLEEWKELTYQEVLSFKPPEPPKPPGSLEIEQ

PRKG1 (human) = PRKG1 (human) (UniProt Q13976)
PRKCZ (human) = PRKCZ (human) (UniProt Q05513)
WNK3 (human) = WNK3 (human) (UniProt Q9BYP7)
PTK2B (human) = PTK2B (human) (UniProt Q14289)
CDK5 CDK5R1 p35 (human) = CDK5 CDK5R1 p35 (human) (UniProt Q00535+Q15078)
CSF1R (human) = CSF1R (human) (UniProt P07333)
OXSR1 (human) = OXSR1 (human) (UniProt O95747)
MAP3K8 (human) = MAP3K8 (human) (UniProt P41279)
ACVR1B (human) = ACVR1B (human) (UniProt P36896)
DYRK1A (human) = DYRK1A (human) (UniProt Q13627)
BMX (human) = BMX (human) (UniProt P51813)
STK4 (human) = STK4 (human) (UniProt Q13043)
WEE1 (human) = WEE1 (human) (UniProt P30291)

With CO[C@H]1CC2CC[C@@H](C)[C@@](O)(O2)C(=O)C(=O)N2CCCC[C@H]2C(=O)OC([C@H](C)C[C@@H]2CC[C@@H](O)[C@H](OC)C2)CC(=O)[C@H](C)/C=C(\C)[C@@H](O)[C@@H](OC)C(=O)[C@H](C)C[C@H](C)/C=C/C=C/C=C/1C (stereo partly drawn) the residual activity (MARK4 (human)) was 99.1%, the residual activity (RPS6KA1 KD1 KD2 (human)) was 104% and the residual activity (LCK (human)) was 99.4%. It also gave a residual activity (PRKCH (human)) of 104%, a residual activity (PHKG1 (human)) of 93% and a residual activity (ERBB2 (human)) of 97.3%. It also gave a residual activity (TEC (human)) of 138%, a residual activity (STK16 (human)) of 112% and a residual activity (SIK2 (human)) of 94.3%. It also gave a residual activity (MARK3 (human)) of 99%, a residual activity (ROCK2 (human)) of 108% and a residual activity (CAMKK1 (human)) of 118%. For the same compound, the residual activity (PRKD1 (human)) was 98.2%, the residual activity (PLK1 (human)) was 97.8% and the residual activity (AKT3 (human)) was 97.8%. For the same compound, the residual activity (FGFR2 (human)) was 110%, the residual activity (MST4 (human)) was 113% and the residual activity (SGK2 (human)) was 101%. For the same compound, the residual activity (FGFR1 (human)) was 89.4%, the residual activity (CSNK1D (human)) was 110% and the residual activity (ITK (human)) was 92.5%. The residual activity (CLK4 (human)) was 116%, the residual activity (MAPK3 (human)) was 104% and the residual activity (LYN (human)) was 100% and 105%. For the same compound, the residual activity (EPHB4 (human)) was 89.5%, the residual activity (SGK3 (human)) was 98.1% and the residual activity (FGFR3 (human)) was 102%. For the same compound, the residual activity (RPS6KA6 KD1 KD2 (human)) was 118%, the residual activity (MAPK11 (human)) was 113% and the residual activity (PRKG1 (human)) was 91%. The residual activity (PRKCZ (human)) was 105%, the residual activity (WNK3 (human)) was 102% and the residual activity (PTK2B (human)) was 94.2%. It also gave a residual activity (CDK5 CDK5R1 p35 (human)) of 99.5%, a residual activity (CSF1R (human)) of 101% and a residual activity (OXSR1 (human)) of 96.6%. For the same compound, the residual activity (MAP3K8 (human)) was 99.8%, the residual activity (ACVR1B (human)) was 97.6% and the residual activity (DYRK1A (human)) was 94.3%. The residual activity (BMX (human)) was 96.6%, the residual activity (STK4 (human)) was 106% and the residual activity (WEE1 (human)) was 93.3%.

Work on CCOC(=O)c1c(C)[nH]c(/C=C2\C(=O)Nc3ccccc32)c1C yielded a residual activity (MARK4 (human)) of 99.6%, a residual activity (RPS6KA1 KD1 KD2 (human)) of 77.6% and a residual activity (LCK (human)) of 88.2%. The residual activity (PRKCH (human)) was 94%, the residual activity (PHKG1 (human)) was 73.3% and the residual activity (ERBB2 (human)) was 101%. For the same compound, the residual activity (TEC (human)) was 141%, the residual activity (STK16 (human)) was 88.3% and the residual activity (SIK2 (human)) was 99.9%. For the same compound, the residual activity (MARK3 (human)) was 99.8%, the residual activity (ROCK2 (human)) was 94.3% and the residual activity (CAMKK1 (human)) was 95.3%. For the same compound, the residual activity (PRKD1 (human)) was 91.3%, the residual activity (PLK1 (human)) was 107% and the residual activity (AKT3 (human)) was 103%. The residual activity (FGFR2 (human)) was 97.9%, the residual activity (MST4 (human)) was 101% and the residual activity (SGK2 (human)) was 93.7%. For the same compound, the residual activity (FGFR1 (human)) was 78.6%, the residual activity (CSNK1D (human)) was 96.4% and the residual activity (ITK (human)) was 86.3%. For the same compound, the residual activity (CLK4 (human)) was 94.3%, the residual activity (MAPK3 (human)) was 101% and the residual activity (LYN (human)) was 84.1% and 98.4%. It also gave a residual activity (EPHB4 (human)) of 89.5%, a residual activity (SGK3 (human)) of 88.1% and a residual activity (FGFR3 (human)) of 80.4%. The residual activity (RPS6KA6 KD1 KD2 (human)) was 87.6%, the residual activity (MAPK11 (human)) was 97.5% and the residual activity (PRKG1 (human)) was 78.3% and 92.8%. The residual activity (PRKCZ (human)) was 97%, the residual activity (WNK3 (human)) was 104% and the residual activity (PTK2B (human)) was 80.6%. It also gave a residual activity (CDK5 CDK5R1 p35 (human)) of 96.7%, a residual activity (CSF1R (human)) of 52.5% and a residual activity (OXSR1 (human)) of 87.9%. The residual activity (MAP3K8 (human)) was 108%, the residual activity (ACVR1B (human)) was 96.6% and the residual activity (DYRK1A (human)) was 95.7%. For the same compound, the residual activity (BMX (human)) was 93.5%, the residual activity (STK4 (human)) was 83.4% and the residual activity (WEE1 (human)) was 91.2%.

Compound Nc1ncnc2[nH]nc(Nc3ccc(F)cc3)c12 has a residual activity (MARK4 (human)) of 99.4%, a residual activity (RPS6KA1 KD1 KD2 (human)) of 82.2% and a residual activity (LCK (human)) of 98.3%. For the same compound, the residual activity (PRKCH (human)) was 84.7%, the residual activity (PHKG1 (human)) was 87.5% and the residual activity (ERBB2 (human)) was 101%. It also gave a residual activity (TEC (human)) of 86%, a residual activity (STK16 (human)) of 108% and a residual activity (SIK2 (human)) of 78.7%. For the same compound, the residual activity (MARK3 (human)) was 92.5%, the residual activity (ROCK2 (human)) was 92.1% and the residual activity (CAMKK1 (human)) was 101%. It also gave a residual activity (PRKD1 (human)) of 98.9%, a residual activity (PLK1 (human)) of 99.9% and a residual activity (AKT3 (human)) of 104%. For the same compound, the residual activity (FGFR2 (human)) was 97.2%, the residual activity (MST4 (human)) was 91% and the residual activity (SGK2 (human)) was 96.5%. For the same compound, the residual activity (FGFR1 (human)) was 91.2%, the residual activity (CSNK1D (human)) was 67.7% and the residual activity (ITK (human)) was 93.9%. For the same compound, the residual activity (CLK4 (human)) was 88.7%, the residual activity (MAPK3 (human)) was 105% and the residual activity (LYN (human)) was 89.7% and 90.3%. For the same compound, the residual activity (EPHB4 (human)) was 87.8%, the residual activity (SGK3 (human)) was 102% and the residual activity (FGFR3 (human)) was 101%. The residual activity (RPS6KA6 KD1 KD2 (human)) was 71.7%, the residual activity (MAPK11 (human)) was 108% and the residual activity (PRKG1 (human)) was 95.7% and 96.9%. For the same compound, the residual activity (PRKCZ (human)) was 109%, the residual activity (WNK3 (human)) was 103% and the residual activity (PTK2B (human)) was 101%. For the same compound, the residual activity (CDK5 CDK5R1 p35 (human)) was 98.6%, the residual activity (CSF1R (human)) was 101% and the residual activity (OXSR1 (human)) was 110%. It also gave a residual activity (MAP3K8 (human)) of 99.7%, a residual activity (ACVR1B (human)) of 104% and a residual activity (DYRK1A (human)) of 86.4%. The residual activity (BMX (human)) was 89.6%, the residual activity (STK4 (human)) was 90.4% and the residual activity (WEE1 (human)) was 93.9%.

CCN(CC)CCNC(=O)c1c(C)[nH]c(/C=C2\C(=O)Nc3ccc(Cl)cc32)c1C showed a residual activity (MARK4 (human)) of 7.19%, a residual activity (RPS6KA1 KD1 KD2 (human)) of 13.1% and a residual activity (LCK (human)) of 11.8%. For the same compound, the residual activity (PRKCH (human)) was 86.1%, the residual activity (PHKG1 (human)) was 3.19% and the residual activity (ERBB2 (human)) was 102%. For the same compound, the residual activity (TEC (human)) was 102%, the residual activity (STK16 (human)) was 72.9% and the residual activity (SIK2 (human)) was 42.7%. It also gave a residual activity (MARK3 (human)) of 7.86%, a residual activity (ROCK2 (human)) of 73.5% and a residual activity (CAMKK1 (human)) of 47.7%. The residual activity (PRKD1 (human)) was 11.3%, the residual activity (PLK1 (human)) was 105% and the residual activity (AKT3 (human)) was 84.2%. The residual activity (FGFR2 (human)) was 29.3%, the residual activity (MST4 (human)) was 73.2% and the residual activity (SGK2 (human)) was 62.8%. It also gave a residual activity (FGFR1 (human)) of 20.3%, a residual activity (CSNK1D (human)) of 49.7% and a residual activity (ITK (human)) of 30%. For the same compound, the residual activity (CLK4 (human)) was 16.8%, the residual activity (MAPK3 (human)) was 98.8% and the residual activity (LYN (human)) was 21.9% and 6.34%. The residual activity (EPHB4 (human)) was 76.9%, the residual activity (SGK3 (human)) was 103% and the residual activity (FGFR3 (human)) was 12.3%. The residual activity (RPS6KA6 KD1 KD2 (human)) was 10.5%, the residual activity (MAPK11 (human)) was 100% and the residual activity (PRKG1 (human)) was 64.2% and 76.4%. It also gave a residual activity (PRKCZ (human)) of 104%, a residual activity (WNK3 (human)) of 86.3% and a residual activity (PTK2B (human)) of 30.5%. It also gave a residual activity (CDK5 CDK5R1 p35 (human)) of 86.2%, a residual activity (CSF1R (human)) of 7.41% and a residual activity (OXSR1 (human)) of 80.1%. It also gave a residual activity (MAP3K8 (human)) of 113%, a residual activity (ACVR1B (human)) of 103% and a residual activity (DYRK1A (human)) of 47.2%. The residual activity (BMX (human)) was 99.3%, the residual activity (STK4 (human)) was 2.98% and the residual activity (WEE1 (human)) was 94.8%.
